Test [1] deals with Ilyonectria destructans. Put plainly: N-Acylation of compound was determined after 22 hr incubation at 250 mg/mL concentration using Cylindrocarpon radicicola resting cells and residual amine was evaluated.
Test [2] concerns Ilyonectria destructans. In words: N-Acylation of amine was determined after 22 hr incubation at 250 mg/mL concentration using Cylindrocarpon radicicola resting cells to amide expressed as enantioselectivity coefficient (amine/amide): 52/48.
The test system of test [3] is Ilyonectria destructans. In words: N-Acylation of amine was determined after 22 hr incubation at 250 mg/mL concentration using Cylindrocarpon radicicola resting cells to amide expressed as enantioselectivity coefficient (amine/amide): 65/35.
Test [4] deals with Ilyonectria destructans. Put plainly: N-Acylation of amine was determined after 22 hr incubation at 250 mg/mL concentration using Cylindrocarpon radicicola resting cells to amide expressed as enantioselectivity coefficient (amine/amide): 59/41.
The subject of test [5] is Ilyonectria destructans. In words: N-Acylation of amine was determined after 22 hr incubation at 250 mg/mL concentration using Cylindrocarpon radicicola resting cells to amide expressed as enantioselectivity coefficient (amine/amide): 53/47.
Test [6] relates to Ilyonectria destructans. Put plainly: N-Acylation of amine was determined after 22 hr incubation at 250 mg/mL concentration using Cylindrocarpon radicicola resting cells to amide expressed as enantioselectivity coefficient (amine/amide): 48/52.

Molecules are shown by their SMILES.

In test [1], `NC1CCc2ccccc21` (stereo not given) gave a Residual amine (ee) of 0%. The Enantioselectivity coefficient in test [2] was 52.
Consider `CC(CN)c1ccccc1` (stereo not given), for which the Residual amine (ee) in test [1] stood at 0%. Further, the Enantioselectivity coefficient in test [3] stood at 65.
Molecule `NC(c1ccccc1)c1ccc(Cl)cc1` (stereo not given) gave a Residual amine (ee) in test [1] of 0%. In test [4], this molecule yielded an Enantioselectivity coefficient of 59.
`CC(N)COc1ccccc1` (stereo not given): the Residual amine (ee) in test [1] was 95%. The same molecule gave an Enantioselectivity coefficient in test [5] of 53.
For the molecule `NC(Cc1ccccc1)c1ccccc1` (stereo not given), in test [1], the Residual amine (ee) was 80%. The molecule also showed an Enantioselectivity coefficient in test [6] of 48.
